Laboratory results: the supplement of paper PMC4862054

Legend:
Conditions in all cases: incubation time: 72 h
HDQ-P1 [1] = assay: normalised viability (% of control), CellTiter-Blue; higher = more viable cells (about 100 = DMSO control)
Summary of the method: (§1)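 Compound dissolved in 5 µl medium was pre-loaded into 384-well plates, and breast cancer cell lines in 20 µl suspension were seeded on top and incubated 72 h. After adding 2.5 µl CellTiter-Blue reagent for 2 h at 37 °C, fluorescence was read at 560/590 nm. Plates were normalised to vehicle (100) and a positive kill control (0), with Z'-factor quality control. Each value is normalised viability at a single listed concentration from the series.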

MDA-MB-436 [2] = assay: as above
Summary of the method: as §1

HCC1143 [3] = assay: as above
Summary of the method: as §1

CAL-148 = assay: as above
Summary of the method: as §1

MDA-MB-453 = assay: as above
Summary of the method: as §1

DU-4475 = assay: as above
Summary of the method: as §1

MFM-223 [4] = assay: as above
Summary of the method: as §1

SK-BR-3 [5] = assay: as above
Summary of the method: as §1

CAL-120 = assay: as above
Summary of the method: as §1

MDA-MB-468 = assay: as above
Summary of the method: as §1

MDA-MB-231 [6] = assay: as above
Summary of the method: as §1

CAL-85-1 [7] = assay: as above
Summary of the method: as §1

HCC1599 [8] = assay: as above
Summary of the method: as §1

BT-549 = assay: as above
Summary of the method: as §1

HCC1937 = assay: as above
Summary of the method: as §1

HDQ-P1 [9] = assay: drug sensitivity score (DSS), CellTiter-Blue viability (DSS (AUC-based score)); higher = stronger viability inhibition; extreme values may be limits of the assay
Description: (§2)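 DSRT with the CellTiter-Blue (resazurin reduction) viability readout, fluorescence 560/590 nm, 72 h incubation. Plates were normalised to DMSO and benzethonium chloride controls. DSS is computed from the area under the fitted dose-response curve (5 or 9 concentrations).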

BT-474 = assay: as above
Description: as §2

MDA-MB-436 [10] = assay: as above
Description: as §2

HCC1143 [11] = assay: as above
Description: as §2

MFM-223 [12] = assay: as above
Description: as §2

SK-BR-3 [13] = assay: as above
Description: as §2

MDA-MB-231 [14] = assay: as above
Description: as §2

CAL-85-1 [15] = assay: as above
Description: as §2

HCC1599 [16] = assay: as above
Description: as §2

COc1cc2c(N3CCN(C(=O)Nc4ccc(OC(C)C)cc4)CC3)ncnc2cc1OCCCN1CCCCC1 [Tandutinib]
normalised viability [%]
Conditions	0.3 nM	1 nM	3 nM	10 nM	100 nM	1000 nM
BT-549	–	108	–	–	95.2	94.1
CAL-85-1 [7]	102	–	91.2	103	–	–
CAL-120	–	110	–	–	106	114
CAL-148	100	–	102	105	–	–
DU-4475	107	–	92.9	98.1	–	–
HCC1143 [3]	–	100	–	–	118	108
HCC1599 [8]	–	99.1	–	–	121	103
HCC1937	–	101	–	–	78.2	115
HDQ-P1 [1]	105	–	95.5	109	–	–
MDA-MB-231 [6]	–	107	–	–	108	122
MDA-MB-436 [2]	–	95	–	–	81.9	112
MDA-MB-453	117	–	94.9	96.9	–	–
MDA-MB-468	–	105	–	–	118	110
MFM-223 [4]	–	104	–	–	98	113
SK-BR-3 [5]	–	111	–	–	111	114

Conditions	drug sensitivity score
BT-474	0
CAL-85-1 [15]	0
HCC1143 [11]	0
HCC1599 [16]	0
HDQ-P1 [9]	0
MDA-MB-231 [14]	0
MDA-MB-436 [10]	0
MFM-223 [12]	0
SK-BR-3 [13]	0

CC(C)C[C@H](NC(=O)[C@H](CCc1ccccc1)NC(=O)CN1CCOCC1)C(=O)N[C@@H](Cc1ccccc1)C(=O)N[C@@H](CC(C)C)C(=O)[C@@]1(C)CO1 [Carfilzomib]
normalised viability [%]
Conditions	0.3 nM	1 nM	3 nM	10 nM	100 nM	1000 nM
BT-549	–	90	–	–	6.79	5.9
CAL-85-1 [7]	107	–	86	72.1	–	–
CAL-120	–	100	–	–	4.54	2.9
CAL-148	101	–	97.8	94.5	–	–
DU-4475	100	–	88.3	64.4	–	–
HCC1143 [3]	–	91.9	–	–	23.9	14.9
HCC1599 [8]	–	106	–	–	64.6	38.9
HCC1937	–	74	–	–	5.98	11
HDQ-P1 [1]	105	–	98.9	56.7	–	–
MDA-MB-231 [6]	–	105	–	–	2.47	7.05
MDA-MB-436 [2]	–	96.8	–	–	6.97	10.9
MDA-MB-453	115	–	38.5	17.7	–	–
MDA-MB-468	–	117	–	–	3.17	2.35
MFM-223 [4]	–	83.4	–	–	13	14.4
SK-BR-3 [5]	–	97.8	–	–	16.7	12.6

Conditions	drug sensitivity score
BT-474	16.1
CAL-85-1 [15]	22.2
HCC1143 [11]	20.4
HCC1599 [16]	7.66
HDQ-P1 [9]	23.7
MDA-MB-231 [14]	25.5
MDA-MB-436 [10]	20.5
MFM-223 [12]	26.4
SK-BR-3 [13]	23.7

Cc1cc2c(F)c(Oc3ncnn4cc(OC[C@@H](C)O)c(C)c34)ccc2[nH]1 [Brivanib]
normalised viability [%]
Conditions	0.3 nM	1 nM	3 nM	10 nM	100 nM	1000 nM
BT-549	–	107	–	–	90.6	109
CAL-85-1 [7]	88.4	–	86.2	89.1	–	–
CAL-120	–	89.3	–	–	82.5	93.2
CAL-148	92.7	–	90.8	93.1	–	–
DU-4475	102	–	93.6	93.4	–	–
HCC1143 [3]	–	85.2	–	–	83.3	84.3
HCC1599 [8]	–	87.1	–	–	100	116
HCC1937	–	87.8	–	–	104	97.6
HDQ-P1 [1]	94.9	–	115	96.3	–	–
MDA-MB-231 [6]	–	113	–	–	89.2	99.2
MDA-MB-436 [2]	–	113	–	–	93	96.4
MDA-MB-453	99.6	–	110	101	–	–
MDA-MB-468	–	93.7	–	–	111	112
MFM-223 [4]	–	95.5	–	–	92.8	97.8
SK-BR-3 [5]	–	98.8	–	–	112	113

Conditions	drug sensitivity score
BT-474	0
CAL-85-1 [15]	0
HCC1143 [11]	0
HCC1599 [16]	0
HDQ-P1 [9]	0
MDA-MB-231 [14]	0
MDA-MB-436 [10]	0
MFM-223 [12]	0
SK-BR-3 [13]	0

CCN(CC)CCOc1ccc(C(=C(Cl)c2ccccc2)c2ccccc2)cc1 [Clomifene]
normalised viability [%]
Conditions	3 nM	10 nM	30 nM	100 nM	1000 nM	10000 nM
BT-549	–	109	–	–	96.6	36
CAL-85-1 [7]	91.3	–	92.4	91.2	–	–
CAL-120	–	93.4	–	–	95.3	18
CAL-148	88.2	–	94.8	101	–	–
DU-4475	101	–	98.4	111	–	–
HCC1143 [3]	–	86.2	–	–	84	85.2
HCC1599 [8]	–	93.8	–	–	106	68.1
HCC1937	–	115	–	–	117	55.6
HDQ-P1 [1]	133	–	130	114	–	–
MDA-MB-231 [6]	–	98.8	–	–	93.8	14.1
MDA-MB-436 [2]	–	119	–	–	109	27.5
MDA-MB-453	116	–	114	104	–	–
MDA-MB-468	–	98.2	–	–	98.1	6.16
MFM-223 [4]	–	102	–	–	106	28.3
SK-BR-3 [5]	–	105	–	–	105	67.2

Conditions	drug sensitivity score
BT-474	2.94
CAL-85-1 [15]	1.08
HCC1143 [11]	0
HCC1599 [16]	0
HDQ-P1 [9]	1.07
MDA-MB-231 [14]	5.53
MDA-MB-436 [10]	2.07
MFM-223 [12]	2.02
SK-BR-3 [13]	0

COc1cc2c(Oc3ccc(NC(=O)C4(C(=O)Nc5ccc(F)cc5)CC4)cc3F)ccnc2cc1OCCCN1CCOCC1 [Foretinib]
normalised viability [%]
Conditions	0.3 nM	1 nM	3 nM	10 nM	100 nM	1000 nM
BT-549	–	79	–	–	101	72
CAL-85-1 [7]	95	–	86.3	95.8	–	–
CAL-120	–	88.3	–	–	95.4	41.8
CAL-148	99.8	–	97.6	96.4	–	–
DU-4475	104	–	91.8	105	–	–
HCC1143 [3]	–	104	–	–	103	82.8
HCC1599 [8]	–	77.2	–	–	89.9	72.6
HCC1937	–	80.8	–	–	91.3	64.9
HDQ-P1 [1]	107	–	99.2	105	–	–
MDA-MB-231 [6]	–	97.8	–	–	113	50.6
MDA-MB-436 [2]	–	132	–	–	77.8	84
MDA-MB-453	115	–	91.6	85.9	–	–
MDA-MB-468	–	102	–	–	111	52.4
MFM-223 [4]	–	102	–	–	58.5	35
SK-BR-3 [5]	–	97.5	–	–	102	77.5

Conditions	drug sensitivity score
BT-474	0
CAL-85-1 [15]	0
HCC1143 [11]	0
HCC1599 [16]	0
HDQ-P1 [9]	4.98
MDA-MB-231 [14]	0
MDA-MB-436 [10]	3.35
MFM-223 [12]	9.7
SK-BR-3 [13]	0.269

CC(C)C(=O)Nc1ccc([N+](=O)[O-])c(C(F)(F)F)c1 [Flutamide]
normalised viability [%]
Conditions	3 nM	10 nM	30 nM	100 nM	1000 nM	10000 nM
BT-549	–	89.7	–	–	84.3	90
CAL-85-1 [7]	101	–	91.8	101	–	–
CAL-120	–	96.7	–	–	95.6	96.8
CAL-148	95.5	–	99.9	103	–	–
DU-4475	111	–	85.1	97.2	–	–
HCC1143 [3]	–	82	–	–	86.3	82.5
HCC1599 [8]	–	105	–	–	114	118
HCC1937	–	96.9	–	–	84.2	97
HDQ-P1 [1]	109	–	105	109	–	–
MDA-MB-231 [6]	–	93.7	–	–	99.5	102
MDA-MB-436 [2]	–	91.5	–	–	95.4	91.6
MDA-MB-453	123	–	94.8	107	–	–
MDA-MB-468	–	97.6	–	–	103	111
MFM-223 [4]	–	89.4	–	–	84.8	109
SK-BR-3 [5]	–	108	–	–	106	106

Conditions	drug sensitivity score
BT-474	0
CAL-85-1 [15]	0
HCC1143 [11]	0
HCC1599 [16]	0
HDQ-P1 [9]	0
MDA-MB-231 [14]	0
MDA-MB-436 [10]	0
MFM-223 [12]	0
SK-BR-3 [13]	0
